From PubChem BioAssay (NCI)
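All cell lines were grown in 96-well plates and treated with compound for 48 hours. Abbreviation: GI50, concentration required for 50% inhibition of growth. TGI denotes the concentration required for complete inhibition of growth.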

Legend:
Test in all cases: NCI anticancer screen, dose series, 48 h
UACC-62 melanoma = system: UACC-62 melanoma
MOLT-4 leukemia = system: MOLT-4 leukemia
SR leukemia = system: SR leukemia
786-0 renal = system: 786-0 renal
OVCAR-4 ovarian = system: OVCAR-4 ovarian
SNB-19 CNS = system: SNB-19 CNS
HOP-62 NSCLC = system: HOP-62 NSCLC
HCC-2998 colon = system: HCC-2998 colon
T-47D breast = system: T-47D breast
MDA-MB-231 breast = system: MDA-MB-231 breast

## COC(=O)CC(=O)OC1C[C@@H]2CCC3C(C)(C)CCC[C@]3(C)C23CC[C@@]1(C)C3 (stereo partly drawn)
UACC-62 melanoma
  TGI: 30.7 µM
MOLT-4 leukemia
  TGI: > 100 µM
SR leukemia
  TGI: > 100 µM
786-0 renal
  TGI: 29.9 µM
OVCAR-4 ovarian
  TGI: 32.5 µM
SNB-19 CNS
  TGI: 31.6 µM
HOP-62 NSCLC
  TGI: 34.1 µM
HCC-2998 colon
  TGI: 35 µM

## CC1=Nc2ccccc2S/C1=C1/C=NC(=NC#N)N=C1C(=O)Nc1cccc(Cl)c1
UACC-62 melanoma
  TGI: > 100 µM
MOLT-4 leukemia
  TGI: > 100 µM
SR leukemia
  TGI: > 100 µM
786-0 renal
  TGI: > 100 µM
OVCAR-4 ovarian
  TGI: > 100 µM
SNB-19 CNS
  TGI: > 100 µM
HOP-62 NSCLC
  TGI: > 100 µM
HCC-2998 colon
  TGI: > 100 µM

## CC(=O)OC1(C(C)=O)CC2(c3ccccc3)OC1(c1ccccc1)c1ccccc12 (stereo not drawn)
UACC-62 melanoma
  TGI: 43.8 µM
MOLT-4 leukemia
  TGI: 40.1 µM
SR leukemia
  TGI: > 100 µM
786-0 renal
  TGI: > 100 µM
SNB-19 CNS
  TGI: > 100 µM
HOP-62 NSCLC
  TGI: 61.5 µM
HCC-2998 colon
  TGI: > 100 µM

## CC(=O)[CH-]C(=O)c1ccccc1.CC(=O)[CH-]C(=O)c1ccccc1.Cl.[O-]CCc1ccccn1.[O-]CCc1ccccn1.[Ti+4]
UACC-62 melanoma
  GI50: 23.6 µM
  TGI: > 100 µM
MOLT-4 leukemia
  GI50: 13.3 µM
  TGI: 49.3 µM
786-0 renal
  GI50: 21.2 µM
  TGI: 57 µM
OVCAR-4 ovarian
  GI50: 41.4 µM
  TGI: > 100 µM
SNB-19 CNS
  GI50: 19.6 µM
  TGI: 49 µM
HOP-62 NSCLC
  GI50: 23.6 µM
  TGI: 47.7 µM
HCC-2998 colon
  GI50: 26.9 µM
  TGI: 83.6 µM

## CN1C/C(=C\c2ccccc2)C2=NN(C(N)=S)[C@H](c3ccccc3)[C@@H]2C1
UACC-62 melanoma
  TGI: > 100 µM
MOLT-4 leukemia
  TGI: > 100 µM
SR leukemia
  TGI: > 100 µM
786-0 renal
  TGI: > 100 µM
OVCAR-4 ovarian
  TGI: > 100 µM
SNB-19 CNS
  TGI: > 100 µM
HOP-62 NSCLC
  TGI: > 100 µM
HCC-2998 colon
  TGI: > 100 µM

## CN(N=O)c1ccc(/C=C/c2ccnc3ccccc23)cc1
UACC-62 melanoma
  TGI: > 100 µM
MOLT-4 leukemia
  TGI: > 100 µM
SR leukemia
  TGI: > 100 µM
786-0 renal
  TGI: > 100 µM
OVCAR-4 ovarian
  TGI: > 100 µM
T-47D breast
  TGI: > 100 µM
SNB-19 CNS
  TGI: > 100 µM
MDA-MB-231 breast
  TGI: > 100 µM
HOP-62 NSCLC
  TGI: > 100 µM

## CSCSCC(CO)NC(=O)/C=C/c1c(C)[nH]c(=O)[nH]c1=O (stereo not drawn)
UACC-62 melanoma
  TGI: > 100 µM
MOLT-4 leukemia
  TGI: > 100 µM
SR leukemia
  TGI: > 100 µM
786-0 renal
  TGI: > 100 µM
OVCAR-4 ovarian
  TGI: > 100 µM
SNB-19 CNS
  TGI: > 100 µM
HCC-2998 colon
  TGI: > 100 µM

## O=C(CC1(O)C(=O)Nc2ccccc21)c1cccc(O)c1 (stereo not drawn)
UACC-62 melanoma
  TGI: > 100 µM
MOLT-4 leukemia
  TGI: > 100 µM
786-0 renal
  TGI: > 100 µM
OVCAR-4 ovarian
  TGI: > 100 µM
SNB-19 CNS
  TGI: > 100 µM
HOP-62 NSCLC
  TGI: > 100 µM

## O=C1N(c2ccc(Cl)cc2)C(=O)C2(SC=NN2Cc2ccccc2)N1c1ccc(Cl)cc1 (stereo not drawn)
UACC-62 melanoma
  TGI: > 100 µM
MOLT-4 leukemia
  TGI: > 100 µM
SR leukemia
  TGI: > 100 µM
786-0 renal
  TGI: > 100 µM
OVCAR-4 ovarian
  TGI: > 100 µM
SNB-19 CNS
  TGI: > 100 µM
HOP-62 NSCLC
  TGI: > 100 µM
HCC-2998 colon
  TGI: > 100 µM

## COc1cc2c(c3oc4c(O)cccc4c(=O)c13)CC(C(C)(O)CCl)O2 (stereo not drawn)
UACC-62 melanoma
  TGI: 2.3 µM
786-0 renal
  TGI: 12.8 µM
OVCAR-4 ovarian
  TGI: 8.18 µM
T-47D breast
  TGI: 13.5 µM
SNB-19 CNS
  TGI: 20.9 µM
MDA-MB-231 breast
  TGI: 5.6 µM
HOP-62 NSCLC
  TGI: 5.85 µM
HCC-2998 colon
  TGI: 8.35 µM

## CCCC(O)c1ccc2[nH]c3c(C)cc([N+](=O)[O-])c(C)c3c2c1 (stereo not drawn)
MOLT-4 leukemia
  TGI: > 100 µM
SR leukemia
  TGI: > 100 µM
786-0 renal
  TGI: > 100 µM
OVCAR-4 ovarian
  TGI: > 100 µM
SNB-19 CNS
  TGI: > 100 µM
HOP-62 NSCLC
  TGI: > 100 µM
HCC-2998 colon
  TGI: > 100 µM

## NP1(Oc2ccc(F)cc2)=NP(N)(Oc2ccc(F)cc2)=NP(Oc2ccc(F)cc2)(Oc2ccc(F)cc2)=N1 (stereo not drawn)
MOLT-4 leukemia
  TGI: 10.5 µM
SR leukemia
  TGI: 15.6 µM
786-0 renal
  TGI: 22.9 µM
T-47D breast
  TGI: 7.27 µM
SNB-19 CNS
  TGI: 22.8 µM
MDA-MB-231 breast
  TGI: 23.4 µM
HOP-62 NSCLC
  TGI: 21.5 µM
HCC-2998 colon
  TGI: 8.4 µM
